Where only a bound is given, the exact number is not on record here.

Drawing on ChEMBL document CHEMBL1268924, “Design, solid-phase synthesis, and biological evaluation of novel 1,5-diarylpyrrole-3-carboxamides as carbonic anhydrase IX inhibitors” (Bioorg Med Chem, 2010), this text covers Ki for 22 molecules.

Chain of Carbonic anhydrase 1 (P00915 whole entry): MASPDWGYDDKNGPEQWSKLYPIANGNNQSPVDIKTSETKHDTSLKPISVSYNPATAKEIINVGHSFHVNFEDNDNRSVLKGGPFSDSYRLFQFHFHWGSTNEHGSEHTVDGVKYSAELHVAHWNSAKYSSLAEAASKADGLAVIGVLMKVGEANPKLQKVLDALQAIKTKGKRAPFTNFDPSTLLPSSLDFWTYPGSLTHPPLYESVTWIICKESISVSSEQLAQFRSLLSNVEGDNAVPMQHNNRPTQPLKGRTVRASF

The first test concerns the target Carbonic anhydrase 1 (Homo sapiens, UniProt P00915). The test is described as follows: Inhibition of human carbonic anhydrase 1 by stopped flow CO2 hydration assay.
`Cc1c(C(=O)N2CCN(C)CC2)cc(-c2ccc3ccccc3c2)n1-c1ccc(S(N)(=O)=O)cc1`: the Ki is more than 10000 nM.

For a further test, the target named is Carbonic anhydrase 9 (Homo sapiens, UniProt Q16790). The test is described as follows: Inhibition of human carbonic anhydrase 9 by stopped flow CO2 hydration assay.
On to `Cc1c(C(=O)NCCN2CCN(C)CC2)cc(-c2ccc(-c3ccccc3)cc2)n1-c1ccc(S(N)(=O)=O)cc1`, for which the Ki was 207 nM.
On the same count and under the same terms, the result for `Cc1c(C(=O)NCCN2CCOCC2)cc(-c2ccc(-c3ccccc3)cc2)n1-c1ccc(S(N)(=O)=O)cc1` reads 187 nM; that for `Cc1c(C(=O)NCCCN2CCOCC2)cc(-c2ccc(-c3ccccc3)cc2)n1-c1ccc(S(N)(=O)=O)cc1`, 101 nM.
`Cc1c(C(=O)NCCN(C)C)cc(-c2ccccc2)n1-c1ccc(S(N)(=O)=O)cc1`: the Ki came to 242 nM.
The same measure, in the same setting: the result for `Cc1c(C(=O)NCCCN(C)C)cc(-c2ccccc2)n1-c1ccc(S(N)(=O)=O)cc1` reads 131 nM; that for `Cc1c(C(=O)N2CCN(C)CC2)cc(-c2ccccc2)n1-c1ccc(S(N)(=O)=O)cc1`, 135 nM; that for `Cc1c(C(=O)NCCN2CCCCC2)cc(-c2ccccc2)n1-c1ccc(S(N)(=O)=O)cc1`, 89 nM.
Still for that read-out and setting: the result for `Cc1c(C(=O)NCCN2CCOCC2)cc(-c2ccccc2)n1-c1ccc(S(N)(=O)=O)cc1` reads 200 nM; that for `Cc1c(C(=O)NCCN(C)C)cc(-c2ccc3ccccc3c2)n1-c1ccc(S(N)(=O)=O)cc1`, 10 nM.
Still for that read-out and setting: the figure for `Cc1c(C(=O)NCCCN(C)C)cc(-c2ccc3ccccc3c2)n1-c1ccc(S(N)(=O)=O)cc1` is 11 nM; for `Cc1c(C(=O)NCCN2CCCC2)cc(-c2ccc3ccccc3c2)n1-c1ccc(S(N)(=O)=O)cc1` it is 30 nM; for `Cc1c(C(=O)NCCN2CCCCC2)cc(-c2ccc3ccccc3c2)n1-c1ccc(S(N)(=O)=O)cc1` it is 125 nM.
As for `Cc1c(C(=O)NCCN2CCN(C)CC2)cc(-c2ccc3ccccc3c2)n1-c1ccc(S(N)(=O)=O)cc1`, the affinity corresponds to a Ki of 126 nM.
Same read-out and setting: the result for `Cc1c(C(=O)NCCCN2CCN(C)CC2)cc(-c2ccc3ccccc3c2)n1-c1ccc(S(N)(=O)=O)cc1` reads 147 nM; that for `Cc1c(C(=O)NCCN2CCOCC2)cc(-c2ccc3ccccc3c2)n1-c1ccc(S(N)(=O)=O)cc1`, 22 nM; that for `Cc1c(C(=O)NCCCN2CCOCC2)cc(-c2ccc3ccccc3c2)n1-c1ccc(S(N)(=O)=O)cc1`, 137 nM.
The molecule `Cc1c(C(=O)NCCCN(C)C)cc(-c2ccc(-c3ccccc3)cc2)n1-c1ccc(S(N)(=O)=O)cc1` came in with an inhibition constant (Ki) of 111 nM.
In turn, `Cc1c(C(=O)N2CCN(C)CC2)cc(-c2ccc(-c3ccccc3)cc2)n1-c1ccc(S(N)(=O)=O)cc1` gave a Ki of 68 nM.
Still for that read-out and setting: the result for `Cc1c(C(=O)NCCN2CCCC2)cc(-c2ccc(-c3ccccc3)cc2)n1-c1ccc(S(N)(=O)=O)cc1` reads 153 nM.
For `Cc1c(C(=O)NCCN2CCCCC2)cc(-c2ccc(-c3ccccc3)cc2)n1-c1ccc(S(N)(=O)=O)cc1`, the Ki turned out to be 167 nM. The Ki values of the last two molecules are within 1.5-fold of each other.
On the same count and under the same terms, the figure for `Cc1c(C(=O)NCCCN2CCN(C)CC2)cc(-c2ccc(-c3ccccc3)cc2)n1-c1ccc(S(N)(=O)=O)cc1` is 198 nM.
